Patent US7528135B2, “Pyridine derivatives as H3 antagonists” (Hoffmann-La Roche Inc., priority 2004, dated 2009)

Target: T1, histamine 3 receptor (H3R) (Homo sapiens, UniProt Q9Y5N1)
T1 construct: expressed in transfected cells; host or cells: CHO cells (HR3-CHO cell line), membrane preparation
Assay: Binding assay with 3H-(R)α-methylhistamine (competition binding, human HR3-CHO membranes)
Details: competition against 3H(R)α-Methylhistamine (1 nM = Kd), membrane of the human HR3-CHO cell line; Ki calculated from IC50 by Cheng-Prusoff
Protocol: Binding Assay with ^3H-(R)α-methylhistamine
Saturation binding experiments were performed using HR3-CHO membranes prepared as described in Takahashi, K, Tokita, S., Kotani, H. (2003) J. Pharmacol. Exp. Therapeutics 307, 213-218.
An appropriate amount of membrane (60 to 80 μg protein/well) was incubated with increasing concentrations of ^3H(R)α-Methylhistamine di-hydrochloride (0.10 to 10 nM). Non specific binding was determined using a 200 fold excess of cold (R)α-Methylhistamine dihydrobromide (500 nM final concentration). The incubation was carried out at room temperature (in deep-well plates shaking for three hours). The final volume in each well was 250 μl. The incubation was followed by rapid filtration on GF/B filters (pre-soaked with 100 μl of 0.5% PEI in Tris 50 mM shaking at 200 rpm for two hours). The filtration was made using a cell-harvester and the filter plates were then washed five times with ice cold washing buffer containing 0.5 M NaCl. After harvesting, the plates were dried at 55° C. for 60 min, then we added scintillation fluid (Microscint 40, 40 microl in each well) and the amount of radioactivity on the filter was determined in Packard top-counter after shaking the plates for two hours at 200 rpm at room temperature.
Binding Buffer: 50 mM Tris-HCl pH 7.4 and 5 mM MgCl2x6H2O pH 7.4. Washing Buffer: 50 mM Tris-HCl pH 7.4 and 5 mM MgCl2x6H2O and 0.5 M NaCl pH 7.4.
Indirect measurement of affinity of H3R inverse agonists: twelve increasing concentrations (ranging from 10 μM to 0.3 nM) of the selected compounds were always tested in competition binding experiments using membrane of the human HR3-CHO cell line. An appropriate amount of protein, e.g. approximately 500 cpm binding of RAMH at Kd, were incubated for 1 hour at room temperature in 250 μl final volume in 96-well plates in presence of ^3H(R)α-Methylhistamine (1 nM final concentration=Kd). […]
All compounds were tested at a single concentration in duplicates. […] Ki's were calculated from IC50 based on Cheng-Prusoff equation (Cheng, Y, Prusoff, W H (1973) Biochem Pharmacol 22, 3099-3108).

T1 sequence (Q9Y5N1 whole entry): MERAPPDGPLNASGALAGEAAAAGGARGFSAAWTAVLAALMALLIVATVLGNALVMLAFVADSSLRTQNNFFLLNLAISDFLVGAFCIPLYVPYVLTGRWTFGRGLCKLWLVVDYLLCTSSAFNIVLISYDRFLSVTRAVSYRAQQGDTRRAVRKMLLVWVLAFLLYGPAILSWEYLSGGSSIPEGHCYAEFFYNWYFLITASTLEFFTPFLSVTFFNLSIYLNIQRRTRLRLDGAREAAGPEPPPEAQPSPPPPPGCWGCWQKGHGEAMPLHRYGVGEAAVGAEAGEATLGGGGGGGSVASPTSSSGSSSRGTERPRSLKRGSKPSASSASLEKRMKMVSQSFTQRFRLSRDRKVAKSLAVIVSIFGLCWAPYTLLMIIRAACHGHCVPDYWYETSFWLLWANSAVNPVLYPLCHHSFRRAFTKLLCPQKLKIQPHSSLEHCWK

SMILES | Ki
CCN1CCN(c2ccc(NC(=O)NCc3ccccc3)cn2)CC1 [Example 3, 1-benzyl-3-[6-(4-ethyl-piperazin-1-yl)-pyridin-3-yl]-urea] | 39 nM
CN(C)S(=O)(=O)Nc1ccc(N2CCN(C3CCCC3)CC2)nc1 [Example 34, N-[6-(4-cyclopentyl-piperazin-1-yl)-pyridin-3-yl]-diemethylaminosulfonamide] | 81 nM
COc1ccc(CC(=O)Nc2ccc(N3CCN(C4CCCC4)CC3)nc2)cc1OC [Example 53, N-[6-(4-cyclopentyl-piperazin-1-yl)-pyridin-3-yl]-2-(3,4-dimethoxy-phenyl)-acetamide] | 40 nM
